From patent publication US10428064B2, “Fused-tricyclic inhibitors of KRAS and methods of use thereof” (Araxes Pharma LLC, priority 2015, dated 2019) come the findings set out here.

The experiment concerns the target T1, KRAS G12C 1-169, his-tagged protein, GDP-loaded (Homo sapiens, UniProt P01116, G12C).
T1 construct: KRAS G12C 1-169, his-tagged protein, GDP-loaded
The experiment is described as follows: Biochemical assay: covalent modification of KRAS G12C protein measured by mass spectrometry (RapidFire/TOF or Q-Exactive). The following applies: covalent binding to KRAS G12C. How it is done:
Test compounds are prepared as 10 mM stock solutions in DMSO (Fisher cat # BP-231-100). KRAS G12C 1-169, his-tagged protein, GDP-loaded is diluted to […] in buffer (20 mM Hepes, 150 mM NaCl, 1 mM MgCl2). Compounds are tested for activity as follows:
Compounds are diluted to 50× final test concentration in DMSO in 96-well storage plates. Compound stock solutions are vortexed before use and observed carefully for any sign of precipitation. […] The plate is then resealed with aluminum seal and stored on dry ice until analyzed as described below.
The above described assays are analyzed by mass spectrometry according to one of the following two procedures: […]
After another 30 minute equilibration time, a blank batch (i.e., buffer) is run to ensure equipment is operating properly. […] The method is then run and masses of each individual well recorded. […]
The masses and peak intensities of KRAS G12C protein species are measured using a Dionex RSLCnano system (Thermo Scientific) connected to a Q Exactive Plus mass spectrometer (Thermo Scientific). […]
The mass spectrometer is operated in profile mode at a resolution of 17500, 5 microscans, using 50 msec max injection time and an AGC target of 1e6, and a full mass range from 800-1850 m/z is recorded. […]

T1 sequence (P01116 1-169 isoform P01116-2 G12C): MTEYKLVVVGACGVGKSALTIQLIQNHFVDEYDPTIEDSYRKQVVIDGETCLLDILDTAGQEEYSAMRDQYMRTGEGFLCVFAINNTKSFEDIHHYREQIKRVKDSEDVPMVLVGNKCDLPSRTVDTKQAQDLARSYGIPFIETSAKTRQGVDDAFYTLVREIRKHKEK

`C=CC(=O)N1CCN(c2c3c(nc4c(F)c(-c5c(O)cccc5F)c(Cl)cc24)NC(=O)NC3)CC1` [Compound 1, 5-(4-acryloylpiperazin-1-yl)-7-chloro-9-fluoro-8-(2-fluoro-6-hydroxyphenyl)-3,4-dihydropyrimido [4,5-b]quinolin-2(1H)-one]: the Binding % result is listed as “++ (++ indicates binding activity greater than 50%)”.
The value for `C=CC(=O)N1CCN(c2c3c(nc4c(F)c(-c5c(O)cccc5F)c(Cl)cc24)CCN(C)C3=O)CC1` [Compound 19, 10-(4-acryloylpiperazin-1-yl)-8-chloro-6-fluoro-7-(2-fluoro-6-hydroxyphenyl)-2-methyl-3,4-dihydrobenzo[b] [1,6]naphthyridin-1(2H)-one] was “+ (+ indicates binding activity up to 50%)”.
